From patent US4431639A, “Adjuvant for stimulating production of lymphocytes” (priority 1979, dated 1984)
Entries after “also recorded” stand apart in the source; their conditions may differ.

Test system: Sarcoma 180
Assay: Survival / recovery of mice after intraperitoneal inoculation of Sarcoma 180
Assay type: in vivo, mice (I.C.R.)
Conditions: for effectiveness against Sarcoma 180 compared with the extract of the natural herb: comparison in words; for effectiveness for treating mice inoculated with Sarcoma 180: in words
Description: White male mice (I.C.R.) weighing 16 to 18 g.
1 gm of the dried powder was dissolved in 160 ml of tap water and was put into the animal cages in place of the usual drinking water, so that the test mice ingested it ad libitum. […]
A large volume of ether extract from a powder of Rhizoma Atractylis alba was produced. Some definite weights of the ether extract were dissolved in small volumes of ethanol, and then diluted with water to obtain emulsions of ether extract/water of 1 mg/100 ml, 2 mg/100 ml, 3 mg/100 ml, 4 mg/100 ml and 5 mg/100 ml.
The emulsions were administered to I.C.R. male mice for one month as described in Example 4, and then the mice were inoculated with 200,000 cells of Sarcoma 180 intraperitoneally. The survival time of the inoculated mice was regressed to the concentration of ether extract administered. […]
Mandelic acid, mandelic acid isoamyl ester (Atractyl), mandelic acid methyl ester, mandelic acid ethyl ester and atrolactic acid were tested by the same procedure as described in Example 6.

Structure (SMILES)	effectiveness against Sarcoma 180 compared with the extract of the natural herb	effectiveness for treating mice inoculated with Sarcoma 180
COC(=O)C(O)c1ccccc1 (stereo not shown) [mandelic acid methyl ester]	less effective than the extract from the natural herb	somewhat effective
O=C(O)C(O)c1ccccc1 (stereo not shown) [Mandelic acid]	less effective than the extract from the natural herb	somewhat effective
CCOC(=O)C(O)c1ccccc1 (stereo not shown) [mandelic acid ethyl ester]	less effective than the extract from the natural herb	somewhat effective
CC(C)CCOC(=O)C(O)c1ccccc1 (stereo not shown) [Atractyl, mandelic acid isoamyl ester]	less effective than the extract from the natural herb; also recorded: significantly less than that of the extract of the natural herb	somewhat effective
CC(O)(C(=O)O)c1ccccc1 (stereo not shown) [atrolactic acid]	less effective than the extract from the natural herb	somewhat effective
